Experimental data taken from patent US20130109734A1 (Metabolex, Inc., priority 2010, published 2013).

Biological target: T1, human GPR120 (Homo sapiens, UniProt Q5NUL3)
T1 construct: host or cells: HEK293 cells co-expressing Gqi5
T1 sequence (Q5NUL3 1-361): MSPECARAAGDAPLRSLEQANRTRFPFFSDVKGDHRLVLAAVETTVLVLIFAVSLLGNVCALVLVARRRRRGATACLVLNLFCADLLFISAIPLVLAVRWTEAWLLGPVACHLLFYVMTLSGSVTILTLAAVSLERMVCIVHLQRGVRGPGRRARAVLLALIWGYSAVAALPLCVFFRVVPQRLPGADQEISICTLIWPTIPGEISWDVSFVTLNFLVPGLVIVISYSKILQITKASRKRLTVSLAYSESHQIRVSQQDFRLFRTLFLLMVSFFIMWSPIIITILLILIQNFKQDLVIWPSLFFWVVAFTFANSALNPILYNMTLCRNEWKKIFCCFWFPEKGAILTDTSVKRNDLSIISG
Test: Intracellular Ca2+ assay in human GPR120 stable cell line (HEK293 co-expressing Gqi5), Flexstation
Type: cell-based
Settings: for % Activity (GW9508 Reference Compound): % activity at 5 μM compared to the maximal activity of GW9508 at 6.7 μM (=100%)
How it was run: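 HEK293 cells stably co-expressing Gqi5 and Flag-tagged human GPR120, loaded with Calcium 4 dye in HBSS/HEPES pH 7.4 at 37 °C; compounds at eight concentrations, 0.00001–20 μM, fluorescence (485/525 nm) read 90 s. EC50 from Max−Min change; percent activity relative to GW9508 maximum at 6.7 μM.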

[1] = human GPR120 cells, Ca2+ fluorescence

| Compound | % Activity (GW9508 Reference Compound) [1] [%] | concentration at which activity reached a maximum (human GPR120 cells, Ca2+ fluorescence, reference compounds, typical value) | EC50 (human GPR120 stably expressing cells, Ca2+ fluorescence (Max-Min), eight concentrations 0.00001 to 20 μM) [µM] |
| --- | --- | --- | --- |
| CCc1cc(OCc2cccc3c2CC(C)(C)O3)ccc1CCC(=O)O [Example 140, 3-(4-((2,2-dimethyl-2,3-dihydrobenzofuran-4-yl)methoxy)-2-ethylphenyl)propanoic acid] | 146.18 | – | – |
| CC1(C)Cc2cc(F)cc(CCc3ccc(OCC(=O)O)cc3)c2O1 [Example 70, 2-(4-(2-(5-fluoro-2,2-dimethyl-2,3-dihydrobenzofuran-7-yl)ethyl)phenoxy)acetic acid] | 117.72 | – | – |
| CCCc1cc(OCc2cc(Cl)cc3c2OC(C)(C)C3)c(F)cc1CCC(=O)O [Example 73, 3-(4-((5-chloro-2,2-dimethyl-2,3-dihydrobenzofuran-7-yl)methoxy)-5-fluoro-2-propylphenyl)propanoic acid] | 114.85 | – | – |
| C[C@H](Cc1ccc(OCc2cc(Cl)cc3c2OC(C)(C)C3)c(C(F)(F)F)c1)C(=O)O [Example 143, (R)-3-(4-((5-chloro-2,2-dimethyl-2,3-dihydrobenzofuran-7-yl)methoxy)-3-(trifluoromethyl)phenyl)-2-methylpropanoic acid] | 90.56 | – | – |
| CC(C)Oc1cc(OCc2cc(Cl)cc3c2OC(C)(C)C3)ccc1CCC(=O)O [Example 116, 3-(4-((5-chloro-2,2-dimethyl-2,3-dihydrobenzofuran-7-yl)methoxy)-2-isopropoxyphenyl)propanoic acid] | 145.6 | – | – |
| Cc1cc(OCc2cc(F)cc3c2OC(C)(C)C3)c(F)cc1CCC(=O)O [Example 214, 3-(5-fluoro-4-((5-fluoro-2,2-dimethyl-2,3-dihydrobenzofuran-7-yl)methoxy)-2-methylphenyl)propanoic acid] | 143.21 | – | – |
| CC1(C)Cc2cc(Cl)cc(COc3ccc4c(c3)CC(C(=O)O)C4)c2O1 (stereo not drawn) [Example 112, 5-((5-chloro-2,2-dimethyl-2,3-dihydrobenzofuran-7-yl)methoxy)-2,3-dihydro-1H-indene-2-carboxylic acid] | 115.42 | – | – |
| Cc1cc2cccc(COc3ccc4c(c3)CCC4CC(=O)O)c2s1 (stereo not drawn) [Example 152, 2-(5-((2-methylbenzo[b]thiophen-7-yl)methoxy)-2,3-dihydro-1H-inden-1-yl)acetic acid] | 83.81 | – | – |
| CC(Cc1ccc(OCc2cc(F)cc3c2OC2(CCCC2)C3)cc1)C(=O)O (stereo not drawn) [Example 162, 3-(4-((5-fluoro-3H-spiro[benzofuran-2,1′-cyclopentane]-7-yl)methoxy)phenyl)-2-methylpropanoic acid] | 154.48 | – | – |
| CC1(C)Cc2cc(F)cc(COc3c(F)cc(C4CC4C(=O)O)cc3F)c2O1 (stereo not drawn) [Example 19, 2-(3,5-difluoro-4-((5-fluoro-2,2-dimethyl-2,3-dihydrobenzofuran-7-yl)methoxy)phenyl)cyclopropanecarboxylic acid] | 125.5 | – | – |
| CC(C)Oc1ccc(Cl)cc1COc1cc2c(cc1F)C(CC(=O)O)CC2 (stereo not drawn) [Example 257, 2-(5-((5-chloro-2-isopropoxybenzyl)oxy)-6-fluoro-2,3-dihydro-1H-inden-1-yl)acetic acid] | 124.62 | – | – |
| CC1(C)Cc2cccc(COc3c(F)cc(CCC(=O)O)cc3F)c2O1 [Example 25, 3-(4-((2,2-dimethyl-2,3-dihydrobenzofuran-7-yl)methoxy)-3,5-difluorophenyl)propanoic acid] | 101.8 | approximately 2.5 μM | – |
| CC(Cc1cc(F)c(OCc2cc(F)cc3c2OC(C)(C)C3)c(F)c1)C(=O)O (stereo not drawn) [Example 18, 3-(3,5-difluoro-4-((5-fluoro-2,2-dimethyl-2,3-dihydrobenzofuran-7-yl)methoxy)phenyl)-2-methylpropanoic acid] | 130.0714 | – | – |
| CC1(C)Cc2c(COc3c(F)cc(C4CC4C(=O)O)cc3F)cccc2O1 (stereo not drawn) [Example 22, 2-(4-((2,2-dimethyl-2,3-dihydrobenzofuran-4-yl)methoxy)-3,5-difluorophenyl)cyclopropanecarboxylic acid] | 126 | – | – |
| CC1(C)Cc2cc(F)cc(COc3ccc4c(CC(=O)O)coc4c3)c2O1 [Example 262, 2-(6-((5-fluoro-2,2-dimethyl-2,3-dihydrobenzofuran-7-yl)methoxy)benzofuran-3-yl)acetic acid] | 137.39 | – | – |
| CC1(C)Cc2cc(F)cc(COc3c(F)cc(CC4CC4C(=O)O)cc3F)c2O1 (racemic) [Example 184, 2-(3,5-difluoro-4-((5-fluoro-2,2-dimethyl-2,3-dihydrobenzofuran-7-yl)methoxy)benzyl)cyclopropanecarboxylic acid] | 97.04 | – | – |
| CC(Cc1cc(F)c(OCc2cccc3c2CC(C)(C)O3)c(F)c1)C(=O)O (stereo not drawn) [Example 21, 3-(4-((2,2-dimethyl-2,3-dihydrobenzofuran-4-yl)methoxy)-3,5-difluorophenyl)-2-methylpropanoic acid] | 112.6 | – | – |
| COc1cc(CCC(=O)O)ccc1OCc1cc(F)cc2c1OC(C)(C)C2 [Example 173, 3-(4-((5-fluoro-2,2-dimethyl-2,3-dihydrobenzofuran-7-yl)methoxy)-3-methoxyphenyl)propanoic acid] | 159.06 | – | – |
| CCOC(Cc1cc(F)c(OCc2cc(F)cc3c2OC(C)(C)C3)c(F)c1)C(=O)O (stereo not drawn) [Example 69, 3-(3,5-difluoro-4-((5-fluoro-2,2-dimethyl-2,3-dihydrobenzofuran-7-yl)methoxy)phenyl)-2-ethoxypropanoic acid] | 78.46 | – | > 10 |
| CC1(C)Cc2c(F)ccc(COc3c(F)cc(C4CC4C(=O)O)cc3F)c2O1 (stereo not drawn) [Example 27, 2-(3,5-difluoro-4-((4-fluoro-2,2-dimethyl-2,3-dihydrobenzofuran-7-yl)methoxy)phenyl)cyclopropanecarboxylic acid] | 143.8489 | – | – |
| [2H]C([2H])(C(=O)O)C([2H])([2H])c1ccc(OCc2cc(Cl)cc3c2OC(C)(C)C3)c(F)c1 [Example 241, 3-(4-((5-chloro-2,2-dimethyl-2,3-dihydrobenzofuran-7-yl)methoxy)-3-fluorophenyl)-2,2,3,3-tetradeuteriopropanoic acid] | 159.62 | – | – |
| CC(Cc1cc(F)c(OCc2ccc(F)c3c2OC(C)(C)C3)c(F)c1)C(=O)O (stereo not drawn) [Example 28, 3-(3,5-difluoro-4-((4-fluoro-2,2-dimethyl-2,3-dihydrobenzofuran-7-yl)methoxy)phenyl)-2-methylpropanoic acid] | 109.6 | – | – |
| CC1(C)Cc2cc(Cl)cc(COc3ccc(C(C)(C)CC(=O)O)cc3)c2O1 [Example 156, 3-(4-((5-chloro-2,2-dimethyl-2,3-dihydrobenzofuran-7-yl)methoxy)phenyl)-3-methylbutanoic acid] | 148.87 | – | – |
| CC(Cc1ccc(OCc2cc(F)cc3c2OCOC3)cc1)C(=O)O (stereo not drawn) [Example 45, 3-(4-((6-fluoro-4H-benzo[d][1,3]dioxin-8-yl)methoxy)phenyl)-2-methylpropanoic acid] | 79.58 | – | – |
| CC(Cc1ccc(OCc2c(F)ccc3c2CC(C)(C)O3)cc1)C(=O)O (stereo not drawn) [Example 96, 3-(4-((5-fluoro-2,2-dimethyl-2,3-dihydrobenzofuran-4-yl)methoxy)phenyl)-2-methylpropanoic acid] | 124.82 | – | – |
